Experimental findings from patent US20120070487A1, “ALKYLSACCHARIDE COMPOSITIONS WITH NUTRACEUTICALS” (AEGIS THERAPEUTICS LLC, priority 2010, published 2012) are described below.

A short description of data set [1]: Oral absorption of calcium with alkylsaccharide; blood levels in volunteers. It is filed as in vivo, human. The following applies: oral gelatin capsules, calcium citrate admixed with 3% dodecyl maltoside. As to the method:
Calcium citrate is obtained from General Nutrition Corp. as 1000 mg tablets. The tablets are ground in a mortar and pestle until a fine uniform powder is created. The powder is admixed with 3% dodecyl maltoside, pharmaceutical grade (Inalco Chemical Co., Milan Italy) and filled into gelatin capsules, size #000-25 mm length (Capsuline, Pompano Beach, Fla.) and administered to volunteers. Blood samples are collected and calcium levels are measured by commercial clinical laboratory. The calcium blood levels obtained following oral administration with dodecyl maltoside are seen to be at least 20% higher than those obtained in the absence of dodecyl maltoside.

For data set [2] the following is noted: mouse, in vivo.
Experimental: (§1) Doses of 1 mg each were also administered to mice by the IP, SC and IM routes in solutions containing 0.18% tetradecyl beta-D-maltoside and compared to administration by oral gavage in a solution containing 0.3% (3 mg/mL wt/vol) of tetradecyl-beta-D-maltoside.
(§2) Six week-old male Swiss Webster mice weighing approximately 30 gm were maintained at a constant temperature (24 C) with lights on from 07:00 to 19:00 h, and allowed food and water ad libitum until used for uptake studies. […] For sc, im, and ip delivery, the peptide was dissolved in sterile phosphate buffered saline (PBS, pH 7.2) at a concentration of 1 mg/200 μL as described previously containing 0.18% tetradecyl-beta-D-maltoside. For oral gavage [D-Leu-4]OB3 was dissolved in 0.3% dodecyl-beta-D-maltoside reconstituted in PBS (pH 7.2) at a concentration of 1 mg/200 μL. […]
(§3) The [D-Leu-4]OB3 competitive ELISA assay was carried out as follows. […] Absorbance was read at 405 nm with a Molecular Devices microplate reader (MDS Sciex, Concord, Ontario Canada). […] The relative bioavailability was determined by plotting the serum concentrations of mouse [D-Leu-4]OB3 vs. time following ip, sc, or im delivery using the graphics program SigmaPlot™ 8.0 (SPSS Science, Chicago, Ill., USA). The area under each curve (AUC) was calculated with a function of this program.
The nature of the next data set: in vivo. The following applies: male, Swiss Webster, mouse, po, 1 mg.
Data set [3] in a line: Oral absorption of resveratrol with sucrose laurate; blood levels in volunteers. The format is in vivo, human. The following applies: oral gelatin capsules, admixed with 5% w/w sucrose laurate. As to the method:
Resveratrol was obtained from RevGenetics, Miami, Fla., as 300 mg gel capsules. Capsules were opened by carefully separating the two halves. The contents were combined and admixed with 5% w/w food grade sucrose laurate alkylsaccharide (Ryoto Sugar Ester M-1216, Mitsubishi-Kagaku Tokyo, Japan). Gelatin capsules were filled with the admixture and administered to volunteers. Blood samples are collected and resveratrol levels are measured by the method of Soleas et al. (Methods Enzymol 335: 130-45 (2001)). The resveratrol blood levels obtained following oral administration with sucrose laurate are at least 20% higher than those obtained in the absence of sucrose laurate.

Where a SMILES comes first, the peptide text is derived from it. [ ]: non-standard residue; d: D form.

Experimental for in vivo: as §1, §2, §3

Take `O=C([O-])CC(O)(CC(=O)[O-])C(=O)[O-].O=C([O-])CC(O)(CC(=O)[O-])C(=O)[O-].[Ca+2].[Ca+2].[Ca+2]` [Calcium citrate]: the “calcium blood levels, increase versus absence of dodecyl maltoside” value in data set [1] is “at least 20%”.

On to `CC(C)C[C@@H](NC(=O)[C@H](CO)NC(=O)[C@H](CS)NC(=O)[C@@H](N)CO)C(=O)N1CCC[C@H]1C(=O)N[C@@H](CCC(N)=O)C(=O)N[C@H](C(N)=O)[C@@H](C)O` [[D-Leu-4]OB3, Ser-Cys-Ser-D-Leu-Pro-Gln-Thr] (H-SCS[dL]PQT-NH2; N-terminus assumed), for which, in data set [2], the “Relative Oral Bioavailability Compared to Three Injection Modes (% of AUC achieved by each respective injection)” value is reported as 37.8% of IM AUC. Moreover, the F rel in the data set “in vivo” is 47.3%.

Turning to `Oc1ccc(C=Cc2cc(O)cc(O)c2)cc1` [Resveratrol], the “resveratrol blood levels, increase versus absence of sucrose laurate” value in data set [3] is “at least 20%”.
